Measurements published in US8143408B2, “N-(8-heteroaryltetrahydronaphtalene-2yl) or N-(5-heteroarylchromane-3-yl) carboxamide derivatives for the treatment of pain” (AstraZeneca AB, priority 2007, dated 2012).

Target: T1, Nav1.7 voltage-gated sodium channel (Homo sapiens, UniProt Q15858)
T1 construct: Gene(s) encoding the full-length protein of the voltage-gated sodium channel of interest are cloned and expressed; expressed in transfected cells
Experiment: Whole-cell voltage clamp electrophysiology assay
Assay type: cell-based
Conditions: cells stably expressing the voltage-gated sodium channel of interest
Method in brief: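 Cells expressing full-length channel, exposed to drug by integrated pipetting on automated patch-clamp platforms or by microperfusion in conventional whole-cell patch clamp. Channels activated by a voltage protocol depolarising from a defined holding potential; buffers per platform manufacturer.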

T1 sequence (Q15858 whole entry): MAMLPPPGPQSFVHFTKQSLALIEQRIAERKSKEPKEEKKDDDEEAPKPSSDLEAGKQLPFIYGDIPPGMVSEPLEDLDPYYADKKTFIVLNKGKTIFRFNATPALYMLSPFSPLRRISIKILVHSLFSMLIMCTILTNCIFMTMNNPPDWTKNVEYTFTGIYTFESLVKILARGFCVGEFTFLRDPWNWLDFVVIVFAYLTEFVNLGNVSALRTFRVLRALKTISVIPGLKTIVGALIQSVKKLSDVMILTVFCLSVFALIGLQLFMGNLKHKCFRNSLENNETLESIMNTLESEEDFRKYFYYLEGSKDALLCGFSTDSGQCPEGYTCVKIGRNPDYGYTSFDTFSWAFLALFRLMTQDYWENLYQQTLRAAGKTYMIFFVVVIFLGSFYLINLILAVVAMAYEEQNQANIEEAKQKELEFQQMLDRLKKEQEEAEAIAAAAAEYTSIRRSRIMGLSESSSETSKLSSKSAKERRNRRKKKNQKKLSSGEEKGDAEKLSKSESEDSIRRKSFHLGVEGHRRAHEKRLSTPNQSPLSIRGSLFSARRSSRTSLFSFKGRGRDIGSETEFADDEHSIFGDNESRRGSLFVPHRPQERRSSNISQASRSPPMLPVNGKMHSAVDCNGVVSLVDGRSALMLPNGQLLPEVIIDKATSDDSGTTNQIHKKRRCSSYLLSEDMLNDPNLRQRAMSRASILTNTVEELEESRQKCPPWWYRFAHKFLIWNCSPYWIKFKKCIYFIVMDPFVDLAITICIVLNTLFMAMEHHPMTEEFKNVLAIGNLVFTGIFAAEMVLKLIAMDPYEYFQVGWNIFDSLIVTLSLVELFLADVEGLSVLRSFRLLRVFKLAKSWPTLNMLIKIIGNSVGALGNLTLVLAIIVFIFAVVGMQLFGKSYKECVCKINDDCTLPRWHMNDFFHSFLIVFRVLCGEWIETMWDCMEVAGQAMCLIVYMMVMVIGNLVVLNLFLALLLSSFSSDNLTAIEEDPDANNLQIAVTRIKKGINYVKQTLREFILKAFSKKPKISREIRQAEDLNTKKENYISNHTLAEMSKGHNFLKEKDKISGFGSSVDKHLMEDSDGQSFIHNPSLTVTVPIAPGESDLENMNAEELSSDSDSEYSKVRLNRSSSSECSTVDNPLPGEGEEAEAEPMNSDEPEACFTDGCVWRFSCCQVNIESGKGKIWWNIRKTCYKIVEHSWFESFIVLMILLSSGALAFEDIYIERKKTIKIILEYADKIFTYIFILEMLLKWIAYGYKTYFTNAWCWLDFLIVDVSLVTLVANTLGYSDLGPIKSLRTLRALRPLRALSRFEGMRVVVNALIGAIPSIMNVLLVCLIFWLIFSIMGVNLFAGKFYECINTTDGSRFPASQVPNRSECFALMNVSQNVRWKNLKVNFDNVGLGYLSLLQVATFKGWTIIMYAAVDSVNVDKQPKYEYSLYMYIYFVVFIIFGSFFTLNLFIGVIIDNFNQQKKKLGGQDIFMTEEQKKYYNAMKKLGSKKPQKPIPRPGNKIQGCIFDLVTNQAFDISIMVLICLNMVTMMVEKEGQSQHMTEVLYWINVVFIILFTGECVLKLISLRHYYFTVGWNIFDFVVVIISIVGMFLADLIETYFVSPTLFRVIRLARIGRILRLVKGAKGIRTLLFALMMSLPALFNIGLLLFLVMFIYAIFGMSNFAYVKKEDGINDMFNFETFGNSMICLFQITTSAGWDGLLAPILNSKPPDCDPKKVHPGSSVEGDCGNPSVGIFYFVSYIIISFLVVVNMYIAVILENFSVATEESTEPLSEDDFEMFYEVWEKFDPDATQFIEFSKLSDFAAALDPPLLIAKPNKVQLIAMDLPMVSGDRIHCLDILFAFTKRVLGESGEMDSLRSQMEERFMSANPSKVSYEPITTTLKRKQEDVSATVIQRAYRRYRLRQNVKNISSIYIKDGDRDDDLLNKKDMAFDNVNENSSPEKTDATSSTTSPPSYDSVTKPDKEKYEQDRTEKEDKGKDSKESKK

IC50 [nM]	SMILES
501	COc1ncc(-c2cccc3c2C[C@H](NC(=O)c2ccc(OCC4COCCO4)nc2)CO3)cc1F (stereo partly drawn) [Example 166, 6-(1,4-dioxan-2-ylmethoxy)-N-[(3S)-5-(5-fluoro-6-methoxypyridin-3-yl)-3,4-dihydro-2H-chromen-3-yl]nicotinamide]
398	COc1ncc(-c2cccc3c2C[C@H](NC(=O)c2ccc(C(=O)NCCC(F)(F)F)nc2)CC3)cn1 [Example 167, N^5-[(2R)-8-(2-methoxypyrimidin-5-yl)-1,2,3,4-tetrahydronaphthalen-2-yl]-N^2-(3,3,3-trifluoropropyl)pyridine-2,5-dicarboxamide]
6310	CC#CCOc1ccc(C(=O)N[C@@H]2CCc3cccc(-c4cnc(OC)nc4)c3C2)cn1 [Example 168, 6-(but-2-yn-1-yloxy)-N-[(2R)-8-(2-methoxypyrimidin-5-yl)-1,2,3,4-tetrahydronaphthalen-2-yl]nicotinamide]
200	O=C(N[C@@H]1COc2cccc(-c3ccc4nccn4c3)c2C1)c1ccc(OC2CCOCC2)nc1 [Example 169, N-[(3S)-5-imidazo[1,2-a]pyridin-6-yl-3,4-dihydro-2H-chromen-3-yl]-6-(tetrahydro-2H-pyran-4-yloxy)nicotinamide]
251	COc1ncc(-c2cccc3c2C[C@H](NC(=O)c2ccc(C(=O)NC4CCC(F)(F)CC4)nc2)CO3)cn1 [Example 170, N^2-(4,4-difluorocyclohexyl)-N^5-[(3S)-5-(2-methoxypyrimidin-5-yl)-3,4-dihydro-2H-chromen-3-yl]pyridine-2,5-dicarboxamide]
126	COc1ncc(-c2cccc3c2C[C@H](NC(=O)c2ccc(C(=O)NCCCC(F)(F)F)nc2)CO3)cn1 [Example 171, N^5-[(3S)-5-(2-methoxypyrimidin-5-yl)-3,4-dihydro-2H-chromen-3-yl]-N^2-(4,4,4-trifluorobutyl)pyridine-2,5-dicarboxamide]
200	COc1ncc(-c2cccc3c2C[C@H](NC(=O)c2ccnc(OCCOCC(F)(F)F)c2)CO3)cn1 [Example 172, N-[(3S)-5-(2-methoxypyrimidin-5-yl)-3,4-dihydro-2H-chromen-3-yl]-2-[2-(2,2,2-trifluoroethoxy)ethoxy]isonicotinamide]
1580	Cc1ncc(-c2cccc3c2C[C@H](NC(=O)c2ccc(C(=O)N(C)CC(F)(F)F)nc2)CO3)cn1 [Example 173, N^2-methyl-N^5-[(3S)-5-(2-methylpyrimidin-5-yl)-3,4-dihydro-2H-chromen-3-yl]-N^2-(2,2,2-trifluoroethyl)pyridine-2,5-dicarboxamide]
200	CCc1ncc(-c2cccc3c2C[C@H](NC(=O)c2ccc(C(=O)NCCC(F)(F)F)nc2)CO3)cn1 [Example 174, N^5-[(3S)-5-(2-ethylpyrimidin-5-yl)-3,4-dihydro-2H-chromen-3-yl]-N^2-(3,3,3-trifluoropropyl)pyridine-2,5-dicarboxamide]
2510	CS(=O)(=O)c1ccc(-c2cccc3c2C[C@H](NC(=O)c2ccc(OCCOCC(F)(F)F)nc2)CO3)cn1 [Example 175, N-{(3S)-5-[6-(methylsulfonyl)pyridin-3-yl]-3,4-dihydro-2H-chromen-3-yl}-6-[2-(2,2,2-trifluoroethoxy)ethoxy]nicotinamide]
126	N#Cc1ccc(-c2cccc3c2C[C@H](NC(=O)c2ccc(OCCOCC(F)(F)F)nc2)CO3)cn1 [Example 176, N-[(3S)-5-(6-cyanopyridin-3-yl)-3,4-dihydro-2H-chromen-3-yl]-6-[2-(2,2,2-trifluoroethoxy)ethoxy]nicotinamide]
50.1	O=C(N[C@@H]1COc2cccc(-c3cnc(C4CC4)nc3)c2C1)c1ccc(OCCOCC(F)(F)F)nc1 [Example 177, N-[(3S)-5-(2-cyclopropylpyrimidin-5-yl)-3,4-dihydro-2H-chromen-3-yl]-6-[2-(2,2,2-trifluoroethoxy)ethoxy]nicotinamide]
